Results reported in patent US20250019385A1, “SPIROCYCLIC ANNULATED 2-AMINO-3-CYANO THIOPHENES AND DERIVATIVES FOR THE TREATMENT OF CANCER” (Boehringer Ingelheim International GmbH, priority 2023, published 2025).
Where two headings read alike, the source gives them in different places.

Tests used:
[1] = molecular target: KRAS (G12D)::SOS1 protein-protein interaction (Homo sapiens (Human), UniProt P01116, G12D); test: KRAS::SOS1 AlphaScreen binding assay (KRAS G12D); conditions: GDP
Procedure, shortened: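 AlphaScreen assay with KRAS G12D (1-169, 6His/avi-tagged, 10 nM), GST-SOS1 564-1049 (5 nM) and GDP (10 μM) in PBS, 0.1% BSA, 0.05% Tween 20; compound up to 100 μM top concentration, eleven fivefold dilutions in duplicate. After 30 min, glutathione acceptor and streptavidin donor beads (10 μg/mL each) were added and signal read after a further 60 min at room temperature in the dark; IC50 from 4-parameter logistic fit.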

[2] = test system: LOVO cells; test: LOVO CTG proliferation assay (120 h) (CRC, G13D); type: cell-based
Description: LOVO cells (ATCC No. CCL-229) are dispensed into black 384-well plates, flat and clear bottom (Greiner, PNr. 781091) at a density of 1000 cells per well in 60 μl DMEM (Sigma D6429)+10% FCS (fetal calf serum, HyClone, SH30084.03). Cells are incubated overnight at 37° C. in a humidified tissue culture incubator at 5% CO2. Compounds (10 mM stock in DMSO) are added at logarithmic dose series using the ECHO acoustic liquid handler system (Beckman Coulter), normalizing for added DMSO and including DMSO controls. All compound treatments are performed in technical duplicates. For the TO time point measurement, untreated cells are analyzed at the time of compound addition. Plates are incubated for 120 h, and cell viability is measured using CellTiter-Glo luminescent cell viability reagent (Promega product code G7570). Viability (stated as percent of control) is defined as relative luminescence units RLU of each well divided by the RLU of cells in DMSO controls. IC50 values are determined from viability measurements by non-linear regression using a four-parameter model.
IC50 values of representative compounds according to the invention measured with these assays in the indicated cell lines are presented in Table 46.

[3] = test system: Ba/F3 cells KRAS G12V; test: Ba/F3 proliferation assay (KRAS G12V); type: cell-based; conditions: AlamarBlue viability
Procedure, shortened: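 Ba/F3 cells retrovirally transduced with KRAS G12 mutant, puromycin-selected, grown IL-3-independent; seeded in RPMI-1640 + 10% FCS without IL-3. Logarithmic compound dose series in duplicate, 72 h at 37° C., AlamarBlue fluorescence as % of DMSO control; IC50 from four-parameter non-linear regression.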

KRAS (G12D)::SOS1 protein-protein interaction, sequence (P01116 other isoform, or with tags, fused parts or gaps G12D): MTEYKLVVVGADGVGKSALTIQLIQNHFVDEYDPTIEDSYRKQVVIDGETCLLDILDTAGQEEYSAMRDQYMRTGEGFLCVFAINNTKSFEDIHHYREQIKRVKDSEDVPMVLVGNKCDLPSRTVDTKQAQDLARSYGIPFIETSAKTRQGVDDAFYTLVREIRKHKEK

| IC50 [1] | IC50 ([2]; Homo sapiens) | IC50 ([3]; Mus musculus, BaF3, 72 h) | SMILES | IC50 [2] | IC50 ([3]; 72 h) |
| --- | --- | --- | --- | --- | --- |
| 2 nM | 43 nM | 14 nM | Cc1cc2c(O[C@@H](C)[C@@H]3CCCN3C)nc(-c3onc4c3CCC[C@@]43CCCc4sc(N)c(C#N)c43)nc2n1[C@@H]1CCOC1 [I-40] | – | – |
| 2 nM | 274 nM | 28 nM | C[C@H](Oc1nc(-c2noc3c2CCC[C@@]32CCCc3sc(N)c(C#N)c32)nc2c1COC[C@@]21CCOC1)[C@@H]1CCCN1C [II-9a] | – | – |
| 1 nM | 9 nM | 5 nM | CCn1c(=O)n([C@@H]2CCOC2)c2nc(-c3onc4c3CCC[C@@]43CCCc4sc(N)c(C#N)c43)nc(O[C@@H](C)[C@@H]3CCCN3C)c21 [I-21] | – | – |
| 1 nM | 6 nM | 2 nM | C[C@H](Oc1nc(-c2onc3c2CCC[C@@]32CCCc3sc(N)c(C#N)c32)nc2c1n(C)c(=O)n2[C@@H]1CCOC1)[C@@H]1CCCN1C [I-20] | – | – |
| 1 nM | 12 nM | 2 nM | C[C@H](Oc1nc(-c2noc3c2CCC[C@@]32CCCc3sc(N)c(C#N)c32)nc2c1CCO[C@]21CCOC1)[C@@H]1CCCN1C [II-9b] | – | – |
| 1 nM | 4 nM | 1 nM | C[C@H](Oc1nc(-c2onc3c2CCC[C@@]32CCCc3sc(N)c(C#N)c32)nc2c1COC[C@]21CCOC1)[C@@H]1CCCN1C [I-54] | – | – |
| 1 nM | 19 nM | 2 nM | C[C@H](Oc1nc(-c2onc3c2CCC[C@@]32CCCc3sc(N)c(C#N)c32)nc2c1n(C)c(=O)n2[C@@H]1CCCOC1)[C@@H]1CCCN1C [I-12] | – | – |
| 2 nM | 39 nM | 16 nM | C[C@H](Oc1nc(-c2onc3c2CCC[C@@]32CCCc3sc(N)c(C#N)c32)nc2c1[nH]c(=O)n2[C@@H]1CCCOC1)[C@@H]1CCCN1C [I-13] | – | – |
| 2 nM | 25 nM | 13 nM | CC(C)n1c(=O)n([C@@H]2CCOC2)c2nc(-c3onc4c3CCC[C@@]43CCCc4sc(N)c(C#N)c43)nc(O[C@@H](C)[C@@H]3CCCN3C)c21 [I-32] | – | – |
| 3 nM | 235 nM | 26 nM | C[C@H](Oc1nc(-c2onc3c2CCC[C@@]32CCCc3sc(N)c(C#N)c32)nc2c1n(C)c(=O)n2C1COC1)[C@@H]1CCCN1C [I-24] | – | – |
| 1 nM | 26 nM | 1 nM | C[C@H](Oc1nc(-c2onc3c2CCC[C@@]32CCCc3sc(N)c(C#N)c32)nc2c1CN(C1COC1)C[C@]21CCOC1)[C@@H]1CC[C@H](C)N1C [I-55] | – | – |
| 1 nM | 11 nM | 6 nM | C[C@H](Oc1nc(-c2noc3c2CCC[C@@]32CCCc3sc(N)c(C#N)c32)nc2c1CCCO[C@]21CCOC1)[C@@H]1CCCN1C [II-10] | – | – |
| 3 nM | 348 nM | 78 nM | Cc1cn([C@@H]2CCOC2)c2nc(-c3onc4c3CCC[C@@]43CCCc4sc(N)c(C#N)c43)nc(O[C@@H](C)[C@@H]3CCCN3C)c12 [I-41] | – | – |
| 1 nM | 258 nM | 20 nM | C[C@H](Oc1nc(-c2onc3c2CCC[C@@]32CCCc3sc(N)c(C#N)c32)nc2c1[nH]c(=O)n2[C@@H]1CCOC1)[C@@H]1CCCN1C [I-8] | – | – |
| 1 nM | 43 nM | 2 nM | C[C@H](Oc1nc(-c2onc3c2CCC[C@@]32CCCc3sc(N)c(C#N)c32)nc2c1CN(C1COC1)C[C@]21CCOC1)[C@@H]1CCCN1C [I-56] | – | – |

More lines, now with the values behind:

| SMILES | IC50 [1] | IC50 ([2]; Homo sapiens) | IC50 ([3]; Mus musculus, BaF3, 72 h) | IC50 [2] | IC50 ([3]; 72 h) |
| --- | --- | --- | --- | --- | --- |
| CO[C@H]1CCN(C)[C@@H]1[C@H](C)Oc1nc(-c2noc3c2CCC[C@@]32CCCc3sc(N)c(C#N)c32)nc2c1n(C)c(=O)n2[C@@H]1CCCOC1 [II-3] | 2 nM | 2 nM | 2 nM | – | – |
| CO[C@@H]1C[C@@H]([C@H](C)Oc2nc(-c3onc4c3CCC[C@@]43CCCc4sc(N)c(C#N)c43)nc3c2n(C)c(=O)n3[C@@]23COC[C@@H]2C3)N(C)C1 [I-46] | 1 nM | 21 nM | 1 nM | – | – |
| CO[C@H]1C[C@H](n2c(=O)n(C)c3c(O[C@@H](C)[C@@H]4CCCN4C)nc(-c4onc5c4CCC[C@@]54CCCc5sc(N)c(C#N)c54)nc32)C1 [I-16] | 12 nM | 404 nM | 226 nM | – | – |
| C[C@H](Oc1nc(-c2noc3c2CCC[C@@]32CCCc3sc(N)c(C#N)c32)nc2c1CC[C@]21CNCCO1)[C@@H]1C[C@@H](F)CN1C [II-20] | 1 nM | – | – | 253 nM | 96 nM |
| C[C@H](Oc1nc(-c2noc3c2CCC[C@@]32CCCc3sc(N)c(C#N)c32)nc2c1cnn2[C@@H]1CCOC1)[C@@H]1CCCN1C [II-4] | 1 nM | 24 nM | 5 nM | – | – |
| C[C@H](Oc1nc(-c2onc3c2CCC[C@@]32CCCc3sc(N)c(C#N)c32)nc2c1n(C)c(=O)n2[C@@H]1CCOC1)C12CCCN1CCC2 [I-25] | 2 nM | 55 nM | 7 nM | – | – |
| CCn1c(=O)n([C@@H]2CCCOC2)c2nc(-c3onc4c3CCC[C@@]43CCCc4sc(N)c(C#N)c43)nc(OC[C@@]34CCCN3C[C@H](F)C4)c21 [I-33] | 126 nM | 891 nM | 739 nM | – | – |
| C[C@H](Oc1nc(-c2onc3c2CCC[C@@]32CCCc3sc(N)c(C#N)c32)nc2c1n(C)c(=O)n2C1CCOCC1)[C@@H]1CCCN1C [I-10] | 5 nM | 53 nM | 16 nM | – | – |
| CCn1c(=O)n([C@@H]2CCCOC2)c2nc(-c3onc4c3CCC[C@@]43CCCc4sc(N)c(C#N)c43)nc(OCC3(CN4CCCC4)CC3)c21 [I-35] | 7 nM | 120 nM | 104 nM | – | – |
| CCn1c(=O)n([C@@H]2CCCOC2)c2nc(-c3onc4c3CCC[C@@]43CCCc4sc(N)c(C#N)c43)nc(O[C@@H](C)C34CCCN3CCC4)c21 [I-36] | 2 nM | 9 nM | 18 nM | – | – |
| C[C@H](Oc1nc(-c2onc3c2CCC[C@@]32CCCc3sc(N)c(C#N)c32)nc2c1n(C)c(=O)n2[C@@H]1CCOC1)[C@@H]1CC[C@H](C)N1C [I-26] | 1 nM | 11 nM | 2 nM | – | – |
| C[C@H](Oc1nc(-c2onc3c2CCC[C@@]32CCCc3sc(N)c(C#N)c32)nc2c1n(C)c(=O)n2[C@@]12COC[C@@H]1C2)[C@@H]1CC[C@H](C)N1C [I-45] | 1 nM | 9 nM | 1 nM | – | – |
| C[C@H](Oc1nc(-c2onc3c2CCC[C@@]32CCCc3sc(N)c(C#N)c32)nc2c1n(C)c(=O)n2[C@@H]1CCOC1)[C@@H]1C[C@H](F)CN1C [I-27] | 2 nM | 52 nM | 13 nM | – | – |
| C[C@H](Oc1nc(-c2noc3c2CCC[C@@]32CCCc3sc(N)c(C#N)c32)nc2c1CN(c1ncccn1)[C@]21CCOC1)[C@@H]1CCCN1C [II-7a] | 2 nM | 11 nM | 10 nM | – | – |
| CCn1c(=O)n([C@@H]2CCCOC2)c2nc(-c3onc4c3CCC[C@@]43CCCc4sc(N)c(C#N)c43)nc(OCC34CCCN3CCC4)c21 [I-34] | 22 nM | 1340 nM | 553 nM | – | – |
| C[C@H](Oc1nc(-c2onc3c2CCC[C@@]32CCCc3sc(N)c(C#N)c32)nc2c1n(C)c(=O)n2[C@@H]1CCOC1)[C@@H]1[C@@H](F)CCN1C [I-5] | 2 nM | 29 nM | 14 nM | – | – |
| C[C@H](Oc1nc(-c2onc3c2CCC[C@@]32CCCc3sc(N)c(C#N)c32)nc2c1n(C)c(=O)n2[C@@H]1CCOC1)[C@@H]1[C@H](F)CCN1C [I-4] | 4 nM | 181 nM | 25 nM | – | – |
| C[C@H](Oc1nc(-c2onc3c2CCC[C@@]32CCCc3sc(N)c(C#N)c32)nc2c1n(C)c(=O)n2[C@H]1CCC[C@@H]1O)[C@@H]1CCCN1C [I-19] | 3 nM | 60 nM | 243 nM | – | – |
